Test results taken from ChEMBL document CHEMBL1158363, “Circular dichroism studies of type III collagen mimetic peptides with anti- or pro-aggregant activities on human platelets” (2009).
Calls of active or inactive are those of the source. The calls are words filed in the database; no cut-off is given here. Where a SMILES comes first, the peptide text is derived from it. [ ]: non-standard residue; d: D form. Hyp = O=C(O)[C@@H]1C[C@@H](O)CN1

System: Platelet
Experiment: Inhibition of type III collagen-induced platelet aggregation in human platelet rich plasma at 1 mM
Type: functional

NCCCC[C@H](NC(=O)[C@H](CCCCN)NC(=O)[C@@H]1C[C@@H](O)CN1C(=O)[C@@H]1C[C@@H](O)CN1)C(=O)N[C@@H](CCC(=O)O)C(=O)N1CCC[C@H]1C(=O)NCC(=O)NCC(=O)O (H-[Hyp][Hyp]KKEPGG-OH)
inhibition: inactive

C[C@H](NC(=O)[C@@H]1C[C@@H](O)CN1C(=O)[C@@H](N)CCCCN)C(=O)N[C@@H](CCC(=O)O)C(=O)N1C[C@H](O)C[C@H]1C(=O)N[C@@H](C)C(=O)N1CCC[C@H]1C(=O)N[C@@H](CCCCN)C(=O)O (H-K[Hyp]AE[Hyp]APK-OH)
inhibition: inactive

C[C@H](NC(=O)[C@@H]1C[C@@H](O)CN1C(=O)[C@H](CCC(=O)O)NC(=O)CNC(=O)[C@@H]1C[C@@H](O)CN1C(=O)[C@@H](N)CCCCN)C(=O)N1CCC[C@H]1C(=O)N[C@@H](CCCCN)C(=O)O (H-K[Hyp]GE[Hyp]APK-OH)
inhibition at 1000 µM: 72.1%

NCCCC[C@H](NC(=O)[C@@H]1CCCN1C(=O)CNC(=O)[C@@H]1C[C@@H](O)CN1C(=O)[C@H](CCC(=O)O)NC(=O)CNC(=O)[C@@H]1C[C@@H](O)CN1C(=O)[C@@H](N)CCCCN)C(=O)O (H-K[Hyp]GE[Hyp]GPK-OH)
inhibition at 1000 µM: 86.1%
